Assay results: patent US20260132140A1, “IMIDAZOLYL-AMINO-PYRAZINE-CARBONITRILS AS CHK-1 INHIBITORS” (BenevolentAI Bio Limited, priority 2022, published 2026)

Experiments:
human Chk1 kinase = target: T1, human Chk1 kinase (Homo sapiens, UniProt O14757); test: biochemical
T1 sequence (O14757 1-476): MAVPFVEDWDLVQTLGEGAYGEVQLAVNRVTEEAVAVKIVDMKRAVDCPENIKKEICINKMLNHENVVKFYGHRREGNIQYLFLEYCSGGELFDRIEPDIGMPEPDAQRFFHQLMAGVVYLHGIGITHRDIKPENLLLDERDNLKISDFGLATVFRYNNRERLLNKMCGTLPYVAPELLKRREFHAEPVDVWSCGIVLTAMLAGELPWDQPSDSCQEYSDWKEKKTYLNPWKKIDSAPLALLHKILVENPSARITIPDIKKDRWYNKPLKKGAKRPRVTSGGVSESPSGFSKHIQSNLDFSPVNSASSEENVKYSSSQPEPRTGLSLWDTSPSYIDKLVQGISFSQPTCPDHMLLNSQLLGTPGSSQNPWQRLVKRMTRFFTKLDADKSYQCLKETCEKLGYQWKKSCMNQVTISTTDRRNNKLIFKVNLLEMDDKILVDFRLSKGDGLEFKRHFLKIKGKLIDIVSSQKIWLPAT

human Chk2 kinase = human Chk2 kinase (Homo sapiens, UniProt O96017); test: biochemical
human Chk2 kinase, sequence (O96017 whole entry): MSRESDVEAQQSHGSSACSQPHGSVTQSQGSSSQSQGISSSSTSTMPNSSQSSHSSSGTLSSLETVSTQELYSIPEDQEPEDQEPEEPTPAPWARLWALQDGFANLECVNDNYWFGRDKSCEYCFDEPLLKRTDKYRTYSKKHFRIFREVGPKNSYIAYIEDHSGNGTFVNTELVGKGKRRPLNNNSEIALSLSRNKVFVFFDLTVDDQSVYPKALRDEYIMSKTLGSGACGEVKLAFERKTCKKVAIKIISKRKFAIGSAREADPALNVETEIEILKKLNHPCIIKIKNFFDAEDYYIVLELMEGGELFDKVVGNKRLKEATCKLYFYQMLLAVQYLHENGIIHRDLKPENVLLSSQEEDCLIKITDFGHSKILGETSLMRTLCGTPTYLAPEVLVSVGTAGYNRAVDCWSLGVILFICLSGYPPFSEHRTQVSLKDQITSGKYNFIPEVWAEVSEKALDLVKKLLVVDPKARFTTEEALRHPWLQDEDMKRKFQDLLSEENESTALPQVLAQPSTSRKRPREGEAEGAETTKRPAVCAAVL

Structure (SMILES) | IC50 (human Chk1 kinase) | IC50 (human Chk2 kinase)
CN(C)[C@H]1CCN(c2ccc(-n3cnc(Nc4cnc(C#N)cn4)c3)cc2)C1 [Example 15, (S)-5-((1-(4-(3-(Dimethylamino)pyrrolidin-1-yl)phenyl)-1H-imidazol-4-yl)amino)pyrazine-2-carbonitrile] | 31.6 to 100 nM | 
COc1cc(N2CC3(CN(C)C3)C2)ccc1-n1cnc(Nc2cnc(C#N)cn2)c1 [Example 46, 5-((1-(2-Methoxy-4-(6-methyl-2,6-diazaspiro[3.3]heptan-2-yl)phenyl)-1H-imidazol-4-yl)amino)pyrazine-2-carbonitrile] | 10 to 31.6 nM | 10000 to 100000 nM
CN1C[C@H](F)[C@H](Oc2cccc(-n3cnc(Nc4cnc(C#N)cn4)c3)c2)C1 [Example 56, 5-((1-(3-(((3R,4S)-4-fluoro-1-methylpyrrolidin-3-yl)oxy)phenyl)-1H-imidazol-4-yl)amino)pyrazine-2-carbonitrile] | 100 to 316 nM | 10000 to 100000 nM
CN(C)C1CN(c2ccc(-n3cnc(Nc4cnc(C#N)cn4)c3)cc2)C1 [Example 32, 5-((1-(4-(3-(Dimethylamino)azetidin-1-yl)phenyl)-1H-imidazol-4-yl)amino)pyrazine-2-carbonitrile] | < 10 nM | > 100000 nM
COc1cc(N2CCN3CCC[C@H]3C2)ccc1-n1cnc(Nc2cnc(C#N)cn2)c1 [Example 30, (S)-5-((1-(4-(Hexahydropyrrolo[1,2-a]pyrazin-2(1H)-yl)-2-methoxyphenyl)-1H-imidazol-4-yl)amino)pyrazine-2-carbonitrile] | < 10 nM | 10000 to 100000 nM
CN(C)[C@@H]1CCN(c2ccc(-n3cnc(Nc4cnc(C#N)cn4)c3)cc2C(F)(F)F)C1 [Example 70, (R)-5-((1-(4-(3-(Dimethylamino)pyrrolidin-1-yl)-3-(trifluoromethyl)phenyl)-1H-imidazol-4-yl)amino)pyrazine-2-carbonitrile] | 31.6 to 100 nM | 1000 to 10000 nM
CN1CCC12CCN(c1ccc(-n3cnc(Nc4cnc(C#N)cn4)c3)cc1)C2 (single isomer, unassigned) [Example 127, 5-((1-(4-(1-Methyl-1,6-diazaspiro[3.4]octan-6-yl)phenyl)-1H-imidazol-4-yl)amino)pyrazine-2-carbonitrile] | 10 to 31.6 nM | > 100000 nM
CC1(C)CCN1C1CCN(c2ccc(-n3cnc(Nc4cnc(C#N)cn4)c3)cc2)C1 (single isomer, unassigned) [Example 139, 5-((1-(4-(3-(2,2-Dimethylazetidin-1-yl)pyrrolidin-1-yl)phenyl)-1H-imidazol-4-yl)amino)pyrazine-2-carbonitrile] | 31.6 to 100 nM | > 100000 nM
CN1CCN(c2ccc(-n3cnc(Nc4cnc(C#N)cn4)c3)cc2F)CC1 [Example 21, 5-((1-(3-Fluoro-4-(4-methylpiperazin-1-yl)phenyl)-1H-imidazol-4-yl)amino)pyrazine-2-carbonitrile] | 31.6 to 100 nM | 10000 to 100000 nM
CN(C)C[C@@H]1CCCN1c1ccc(-n2cnc(Nc3cnc(C#N)cn3)c2)cc1 [Example 66, (S)-5-((1-(4-(2-((Dimethylamino)methyl)pyrrolidin-1-yl)phenyl)-1H-imidazol-4-yl)amino)pyrazine-2-carbonitrile] | 31.6 to 100 nM | 10000 to 100000 nM
CN1CC[C@H](N(C)c2ccc(-n3cnc(Nc4cnc(C#N)cn4)c3)cc2)C1 [Example 95, (S)-5-((1-(4-(Methyl(1-methylpyrrolidin-3-yl)amino)phenyl)-1H-imidazol-4-yl)amino)pyrazine-2-carbonitrile] | 31.6 to 100 nM | 10000 to 100000 nM
CN1C[C@@H]2CC[C@H]1CN2c1ccc(-n2cnc(Nc3cnc(C#N)cn3)c2)cc1 [Example 42, 5-((1-(4-((1S,4S)-5-Methyl-2,5-diazabicyclo[2.2.2]octan-2-yl)phenyl)-1H-imidazol-4-yl)amino)pyrazine-2-carbonitrile] | < 10 nM | 10000 to 100000 nM
COc1cc(N2C[C@H]3C[C@@H]2CN3C)ccc1-n1cnc(Nc2cnc(C#N)cn2)c1 [Example 44, 5-((1-(2-Methoxy-4-((1R,4R)-5-methyl-2,5-diazabicyclo[2.2.1]heptan-2-yl)phenyl)-1H-imidazol-4-yl)amino)pyrazine-2-carbonitrile] | 10 to 31.6 nM | 10000 to 100000 nM
COc1cc(N(C)C2CCN(C)CC2)ccc1-n1cnc(Nc2cnc(C#N)cn2)c1 [Example 14, 5-((1-(2-Methoxy-4-(methyl(1-methylpiperidin-4-yl)amino)phenyl)-1H-imidazol-4-yl)amino)pyrazine-2-carbonitrile] | 10 to 31.6 nM | 10000 to 100000 nM
N#Cc1cnc(Nc2cn(-c3ccc(CN4CCC(F)CC4)cc3)cn2)cn1 [Example 174, 5-((1-(4-((4-Fluoropiperidin-1-yl)methyl)phenyl)-1H-imidazol-4-yl)amino)pyrazine-2-carbonitrile] | 31.6 to 100 nM | 10000 to 100000 nM
COc1cc(CN2CC[C@@H](F)C2)ccc1-n1cnc(Nc2cnc(C#N)cn2)c1 [Example 169] | 10 to 31.6 nM | 10000 to 100000 nM
CN1CCCN(c2cccc(-n3cnc(Nc4cnc(C#N)cn4)c3)c2)CC1 [Example 33, 5-((1-(3-(4-Methyl-1,4-diazepan-1-yl)phenyl)-1H-imidazol-4-yl)amino)pyrazine-2-carbonitrile] | 31.6 to 100 nM | 10000 to 100000 nM
CN(C)CC1CCN(c2ccc(-n3cnc(Nc4cnc(C#N)cn4)c3)cc2)C1 (single isomer, unassigned) [Example 115, 5-((1-(4-(3-((Dimethylamino)methyl)pyrrolidin-1-yl)phenyl)-1H-imidazol-4-yl)amino)pyrazine-2-carbonitrile] | 31.6 to 100 nM | 
N#Cc1cnc(Nc2cn(-c3ccc(N4CC[C@@H](N5CCCC5)C4)cc3)cn2)cn1 [Example 147, (R)-5-((1-(4-([1,3′-Bipyrrolidin]-1′-yl)phenyl)-1H-imidazol-4-yl)amino)pyrazine-2-carbonitrile] | 10 to 31.6 nM | 
Cc1cc(N2CCN(C)CC2)ccc1-n1cnc(Nc2cnc(C#N)cn2)c1 [Example 145, 5-((1-(2-methyl-4-(4-Methylpiperazin-1-yl)phenyl)-1H-imidazol-4-yl)amino)pyrazine-2-carbonitrile] | 316 to 1000 nM | 
CN1CC2(C1)CN(c1ccc(-n3cnc(Nc4cnc(C#N)cn4)c3)cc1)C2 [Example 11, 5-((1-(4-(6-Methyl-2,6-diazaspiro[3.3]heptan-2-yl)phenyl)-1H-imidazol-4-yl)amino)pyrazine-2-carbonitrile] | 10 to 31.6 nM | 
CCN1CCN(c2ccc(-n3cnc(Nc4cnc(C#N)cn4)c3)cc2)CC1 [Example 185, 5-((1-(4-(4-Ethylpiperazin-1-yl)phenyl)-1H-imidazol-4-yl)amino)pyrazine-2-carbonitrile] | 10 to 31.6 nM | 
CN[C@H]1CN(c2ccc(-n3cnc(Nc4cnc(C#N)cn4)c3)cc2)C[C@H]1OC [Example 163, 5-((1-(4-((3R,4S)-3-Methoxy-4-(methylamino)pyrrolidin-1-yl)phenyl)-1H-imidazol-4-yl)amino)pyrazine-2-carbonitrile] | 10 to 31.6 nM | 
CN1CCN(C(=O)c2ccc(-n3cnc(Nc4cnc(C#N)cn4)c3)cc2)CC1 [Example 144, 5-((1-(4-(4-Methylpiperazine-1-carbonyl)phenyl)-1H-imidazol-4-yl)amino)pyrazine-2-carbonitrile] | 100 to 316 nM | 
